Assay results from ChEMBL document CHEMBL1201862, “PubChem BioAssay data set” (2004).
Calls of active or inactive are those of the source.

Key:
Vero = test: cells; format: functional; conditions: Chlorocebus sabaeus
[1] = target: FAD-linked sulfhydryl oxidase ALR (Homo sapiens, UniProt P55789); test: inhibitors of human ALR sulfhydryl oxidase, dose response, biochemical, H2O2 detection, luminescence, cherry-pick (AID 493248)
H9c2 = test: cells; format: functional, cell-based; conditions: Rattus norvegicus, H9c2, Myocardium;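 also: confirmatory concentration-response retest of ultra-high-throughput screening hits for modulation of myocardial damage; cell death induced by hydrogen peroxide oxidative stress; compound pretreatment for 60 min then peroxide exposure for 2 h; potency is for protecting the cells against peroxide damage rather than for killing them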
[2] = target: T1, Rac GTPase-activating protein 1 (Homo sapiens, UniProt Q9H0H5); test: MgcRacGAP GTPase-activating activity inhibitors, confirmation, biochemical, ADP Hunter fluorescence, primary and confirmatory (AID 624330); format: functional
T1 sequence (Q9H0H5 whole entry): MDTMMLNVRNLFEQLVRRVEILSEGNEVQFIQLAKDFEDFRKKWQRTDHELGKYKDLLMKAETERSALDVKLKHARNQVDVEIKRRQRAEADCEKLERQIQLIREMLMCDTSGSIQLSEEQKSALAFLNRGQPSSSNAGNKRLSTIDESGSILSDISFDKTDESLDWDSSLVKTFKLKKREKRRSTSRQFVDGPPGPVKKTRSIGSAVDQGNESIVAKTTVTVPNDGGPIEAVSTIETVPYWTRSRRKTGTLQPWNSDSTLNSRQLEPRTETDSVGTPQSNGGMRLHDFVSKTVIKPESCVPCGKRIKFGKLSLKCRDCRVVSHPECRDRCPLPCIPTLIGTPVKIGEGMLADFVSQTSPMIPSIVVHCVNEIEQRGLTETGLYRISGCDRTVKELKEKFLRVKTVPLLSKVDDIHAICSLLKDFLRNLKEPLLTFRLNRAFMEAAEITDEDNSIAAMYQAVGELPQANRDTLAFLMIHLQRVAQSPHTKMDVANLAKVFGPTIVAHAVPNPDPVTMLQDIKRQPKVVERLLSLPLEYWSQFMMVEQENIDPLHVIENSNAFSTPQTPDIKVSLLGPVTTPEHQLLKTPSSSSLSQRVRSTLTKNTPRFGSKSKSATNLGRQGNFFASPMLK

[3] = tested on: Streptococcus sp. 'group A'; test: growth inhibition of control SK(-) GAS strain, dose response, counter-screen for streptokinase expression inhibitor project, luminescence, kanamycin, BacTiterGlo, confirmation (AID 1900); format: functional, organism-based
Streptokinase A = target: T2, Streptokinase A (Streptococcus pyogenes serotype M1, UniProt P10520); test: S. pyogenes streptokinase expression inhibitors, potency, dose response, plasminogen activation absorbance, OD405 (AID 1914); format: functional, Streptococcus pyogenes M1 GAS;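 also: secreted streptokinase activity via plasminogen activation per viability signal from cell pellet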
T2 sequence (P10520 whole entry): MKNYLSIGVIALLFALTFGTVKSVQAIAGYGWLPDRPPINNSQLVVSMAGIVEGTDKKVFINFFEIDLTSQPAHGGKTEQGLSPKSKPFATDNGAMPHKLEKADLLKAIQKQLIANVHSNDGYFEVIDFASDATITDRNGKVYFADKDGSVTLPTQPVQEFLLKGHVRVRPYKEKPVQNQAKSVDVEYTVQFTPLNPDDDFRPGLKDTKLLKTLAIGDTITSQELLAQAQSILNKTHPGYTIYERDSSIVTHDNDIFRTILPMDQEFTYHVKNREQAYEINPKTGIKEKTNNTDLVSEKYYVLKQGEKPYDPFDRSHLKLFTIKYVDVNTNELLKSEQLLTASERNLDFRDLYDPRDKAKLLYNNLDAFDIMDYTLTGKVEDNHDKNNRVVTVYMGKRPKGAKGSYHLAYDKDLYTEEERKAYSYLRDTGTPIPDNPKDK

Streptococcus = test: Group A Streptococcus viability loss, dose response, counter-screen for streptokinase expression inhibitor project, luminescence, BacTiterGlo (AID 1915); format: functional, organism-based;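 also: potency for reduction of bacterial viability or growth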
BJ [4] = test: cytotoxicity toward BJ-TERT fibroblasts, dose response, cell-based, RAS-independent, luminescence (AID 1933); format: functional; conditions: Homo sapiens
BJ [5] = test: cells; format: functional, cell-based; conditions: Homo sapiens
[6] = target: Luciferin 4-monooxygenase (Photinus pyralis, UniProt P08659); test: firefly luciferase enzyme inhibitors, dose response, biochemical, luminescence (AID 1891)
[7] = Luminescence Cell-Based Dose Confirmation HTS to Identify Inhibitors of Platelet Dense Granule Release. [Related pubchem assays: 1663 (Primary HTS), 1678 (Summary of Project)]; format: functional
BJ [8] = test: cytotoxicity toward BJ-TERT-LT-ST fibroblasts, dose response, cell-based, RAS-independent, luminescence (AID 1935); format: functional; conditions: Homo sapiens;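 also: BJ fibroblasts immortalized with TERT plus LT and ST oncogenes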
[9] = cytotoxicity toward DRD oncogenic fibroblasts, dose response, cell-based, non-viral oncogenic, luminescence (AID 1934); format: functional; conditions: Homo sapiens
[10] = NIH-3T3 fibroblast cytotoxicity, dose response, cytotoxicity control, cell-based, fluorescence, Alamar Blue, secondary assay (AID 2327); format: functional;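 also: NIH-3T3 mouse fibroblasts cultured with fluconazole at 8 µg/mL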
Cytochrome P450 2C19 = Cytochrome P450 2C19 (Homo sapiens, UniProt P33261); test: Cytochrome panel assay with activity outcomes. Panel member name: p450-cyp2c19 Compounds with AC50 equal or less than 10 uM are considered active; format: functional; conditions: read-out: AC50
Cytochrome P450 2D6 = Cytochrome P450 2D6 (Homo sapiens, UniProt P10635);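 also: CYP2D6 member of a cytochrome P450 panel assay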
Cytochrome P450 2C9 = Cytochrome P450 2C9 (Homo sapiens, UniProt P11712)
[11] = inhibitors of firefly luciferase expression or activity, dose response, H4 neuroglioma cells, luminescence (AID 1990); format: functional, cell-based
[12] = Luminescence Cell-Based Dose Response HTS to Identify Inhibitors of 5'UTR Stem-Loop Driven Prion Protein mRNA Translation in H4 Neuroglioblastoma Cells. [Related pubchem assays: 1827 (Project Summary), 1813 (Primary HTS)]; format: functional
Large T antigen = Large T antigen (Simian virus 40, UniProt P03070); format: functional, Betapolyomavirus macacae;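 also: Confirmatory-stage PubChem screen for compounds that inhibit SV40 T antigen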
[13] = inhibitors of intracellular T. cruzi replication, confirmation, NIH3T3 host cells, beta-gal luminescence (AID 2044); format: functional, cell-based;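 also: intracellular parasites grown in NIH/3T3 mouse fibroblasts as host cells; luminescent beta-galactosidase reporter signal from transgenic T. cruzi replicating inside host cells; inhibitors lower the luminescence signal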
[14] = cytotoxicity toward NIH3T3 fibroblasts, dose response, counter-screen, cell-based, ATP luminescence, mouse fibroblasts (AID 2010); format: functional;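 also: cells exposed to compound for about 90 hours before reading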

Cytochrome P450 2D6, sequence (P10635 whole entry): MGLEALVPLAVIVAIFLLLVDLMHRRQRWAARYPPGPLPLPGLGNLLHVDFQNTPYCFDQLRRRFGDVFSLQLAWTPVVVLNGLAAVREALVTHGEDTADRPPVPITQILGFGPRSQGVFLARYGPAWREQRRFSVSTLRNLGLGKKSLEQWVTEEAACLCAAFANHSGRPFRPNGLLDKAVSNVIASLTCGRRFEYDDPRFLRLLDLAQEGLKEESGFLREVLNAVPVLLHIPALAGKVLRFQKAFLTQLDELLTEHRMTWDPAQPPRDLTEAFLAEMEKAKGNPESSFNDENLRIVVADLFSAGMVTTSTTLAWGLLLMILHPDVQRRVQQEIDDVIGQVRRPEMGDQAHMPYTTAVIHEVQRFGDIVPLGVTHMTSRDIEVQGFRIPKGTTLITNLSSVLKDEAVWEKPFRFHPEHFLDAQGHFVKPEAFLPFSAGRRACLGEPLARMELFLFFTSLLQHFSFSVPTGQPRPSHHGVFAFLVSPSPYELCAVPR
Cytochrome P450 2C9, sequence (P11712 whole entry): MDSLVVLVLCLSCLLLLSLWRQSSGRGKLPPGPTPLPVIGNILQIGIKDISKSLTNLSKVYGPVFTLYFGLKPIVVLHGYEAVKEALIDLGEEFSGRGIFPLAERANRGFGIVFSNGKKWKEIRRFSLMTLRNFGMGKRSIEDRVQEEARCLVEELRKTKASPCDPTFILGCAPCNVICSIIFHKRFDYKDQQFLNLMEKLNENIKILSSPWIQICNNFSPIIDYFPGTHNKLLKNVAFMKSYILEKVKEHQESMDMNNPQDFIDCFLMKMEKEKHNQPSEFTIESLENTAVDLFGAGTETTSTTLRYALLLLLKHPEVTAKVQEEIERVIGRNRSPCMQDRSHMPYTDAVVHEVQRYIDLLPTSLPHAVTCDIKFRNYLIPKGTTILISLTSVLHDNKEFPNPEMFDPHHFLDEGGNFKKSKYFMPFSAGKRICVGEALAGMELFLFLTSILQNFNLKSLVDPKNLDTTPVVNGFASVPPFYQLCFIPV
FAD-linked sulfhydryl oxidase ALR, sequence (P55789 whole entry): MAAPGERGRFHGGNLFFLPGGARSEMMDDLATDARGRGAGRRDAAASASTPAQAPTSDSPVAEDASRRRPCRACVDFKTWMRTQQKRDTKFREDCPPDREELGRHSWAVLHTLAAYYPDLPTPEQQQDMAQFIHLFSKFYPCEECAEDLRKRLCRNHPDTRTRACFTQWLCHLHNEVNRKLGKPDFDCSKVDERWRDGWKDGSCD
Cytochrome P450 2C19, sequence (P33261 whole entry): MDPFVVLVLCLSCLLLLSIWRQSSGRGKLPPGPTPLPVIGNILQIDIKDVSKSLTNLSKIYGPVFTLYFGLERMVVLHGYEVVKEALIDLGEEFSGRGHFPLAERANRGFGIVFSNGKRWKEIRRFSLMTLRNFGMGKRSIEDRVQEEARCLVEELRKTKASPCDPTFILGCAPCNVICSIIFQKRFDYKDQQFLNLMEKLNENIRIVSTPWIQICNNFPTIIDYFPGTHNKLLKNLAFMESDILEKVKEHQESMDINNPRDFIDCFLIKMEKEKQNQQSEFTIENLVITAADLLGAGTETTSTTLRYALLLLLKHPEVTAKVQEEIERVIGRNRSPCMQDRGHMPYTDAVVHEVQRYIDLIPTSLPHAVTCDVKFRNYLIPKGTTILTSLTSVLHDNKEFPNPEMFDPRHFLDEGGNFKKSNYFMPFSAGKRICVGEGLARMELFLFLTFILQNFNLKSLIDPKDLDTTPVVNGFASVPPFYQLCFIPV
Large T antigen, sequence (P03070 whole entry): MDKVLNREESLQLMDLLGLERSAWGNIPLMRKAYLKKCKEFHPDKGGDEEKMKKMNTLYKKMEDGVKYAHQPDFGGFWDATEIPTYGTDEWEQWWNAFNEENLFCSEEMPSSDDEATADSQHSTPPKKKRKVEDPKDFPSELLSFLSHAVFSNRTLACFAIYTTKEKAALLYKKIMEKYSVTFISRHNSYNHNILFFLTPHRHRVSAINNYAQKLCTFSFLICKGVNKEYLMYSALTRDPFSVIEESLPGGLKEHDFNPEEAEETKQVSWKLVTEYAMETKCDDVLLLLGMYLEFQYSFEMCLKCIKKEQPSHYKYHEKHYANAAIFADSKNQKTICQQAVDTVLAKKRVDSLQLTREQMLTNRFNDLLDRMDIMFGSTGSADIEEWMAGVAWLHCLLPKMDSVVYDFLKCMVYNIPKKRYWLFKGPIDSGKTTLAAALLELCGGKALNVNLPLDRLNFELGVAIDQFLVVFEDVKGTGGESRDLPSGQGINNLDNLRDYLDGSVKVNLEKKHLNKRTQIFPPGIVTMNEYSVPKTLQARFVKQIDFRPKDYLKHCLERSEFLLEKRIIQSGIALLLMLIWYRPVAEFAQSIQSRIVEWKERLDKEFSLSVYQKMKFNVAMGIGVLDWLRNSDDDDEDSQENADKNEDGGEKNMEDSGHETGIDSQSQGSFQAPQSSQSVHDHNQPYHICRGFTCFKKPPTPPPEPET
Luciferin 4-monooxygenase, sequence (P08659 whole entry): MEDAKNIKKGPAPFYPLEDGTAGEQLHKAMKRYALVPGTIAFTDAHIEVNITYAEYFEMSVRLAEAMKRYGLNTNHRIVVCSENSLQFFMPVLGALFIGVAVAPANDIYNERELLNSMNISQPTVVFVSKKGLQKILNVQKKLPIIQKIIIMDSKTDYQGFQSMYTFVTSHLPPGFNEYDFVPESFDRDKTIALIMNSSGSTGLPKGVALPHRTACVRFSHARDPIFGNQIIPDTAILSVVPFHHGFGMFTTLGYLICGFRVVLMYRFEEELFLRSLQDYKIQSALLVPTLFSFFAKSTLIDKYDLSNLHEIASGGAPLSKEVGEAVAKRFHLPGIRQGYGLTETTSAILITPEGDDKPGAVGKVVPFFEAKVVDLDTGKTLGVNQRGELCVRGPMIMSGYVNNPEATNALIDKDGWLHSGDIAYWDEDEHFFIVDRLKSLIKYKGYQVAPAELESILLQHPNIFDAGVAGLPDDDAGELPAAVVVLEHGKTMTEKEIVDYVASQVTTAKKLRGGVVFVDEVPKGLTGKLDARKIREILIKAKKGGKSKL

In the case of `CCOC(=O)c1oc2ccc(S(=O)(=O)n3nc(-c4ccc(Cl)cc4)cc3N)cc2c1C`, the CC50 (Vero) is reported as > 25 µM (active).

In the case of `Cc1cc(Oc2ncccc2[N+](=O)[O-])c2cc(Cl)ccc2n1`, the AC50 [1] is reported as 0.409 µM (active).

With `COc1ccc(NCc2cc3ccccc3nc2O)cc1` the IC50 (H9c2) was > 79 µM (inactive) and the IC50 [2] was 94.7 µM (active).

With `O=C(NN/C=C1\C(=O)N(c2ccccc2Cl)C(=O)c2ccccc21)C1COc2ccccc2O1` (stereo not given) the EC50 [3] was 6.64 µM (active), the EC50 (Streptokinase A) was > 150 µM (not active) and the EC50 (Streptococcus) was 7.4 µM (active). For the same compound, the IC50 (H9c2) was 17.2 µM (active).

In the case of `OC1CCN(c2c3c(nc4cc(-c5cccc(F)c5)nn24)CCCC3)CC1`, the IC50 (H9c2) is reported as > 79 µM (inactive).

For `Nc1cc2sc(-c3ccc(C(=O)O)cc3)nc2cc1Cl`, the EC50 (BJ [4]) was 20.4 µM (active), the EC50 (BJ [5]) was 17 µM (active) and the EC50 [6] was 0.441 µM (active). The EC50 [7] was 1.32 µM (active), the EC50 (BJ [8]) was > 150 µM (inconclusive) and the EC50 [9] was 15.4 µM (active).

In the case of `COc1cccc(Oc2cnc(N)nc2-c2ccc(OC)cc2O)c1`, the EC50 (BJ [4]) is reported as 17.9 µM (inconclusive), the EC50 (BJ [5]) is reported as 27.6 µM (active) and the EC50 (BJ [8]) is reported as 67.1 µM (active). For the same compound, the EC50 [9] was 10.9 µM (active).

In the case of `O=C(CN1C(=O)CCC1=O)NNc1ccc2ccccc2c1`, the EC50 [10] is reported as 3.62 µM (active) and the AC50 [1] is reported as 0.09 µM (active).

With `COc1cc(OC)cc(C(=O)Nc2ccc(N3CCN(C(=O)c4cccs4)CC3)cc2)c1` the EC50 (BJ [4]) was 14.9 µM (active), the EC50 (BJ [5]) was 61.2 µM (active) and the EC50 (BJ [8]) was > 150 µM (inconclusive). The EC50 [9] was 19.5 µM (active).

In the case of `CCCCCCCCCCCCCCCC(=O)NC[C@@H](COP(=O)([O-])OCC[N+](C)(C)C)OCC`, the AC50 (Cytochrome P450 2C19) is reported as 39.8 µM (inconclusive), the AC50 (Cytochrome P450 2D6) is reported as 31.6 µM (inconclusive) and the AC50 (Cytochrome P450 2C9) is reported as “inconclusive”.

In the case of `CC(OC(=O)c1cc(-c2cccnc2)nc2ccccc12)C(=O)Nc1ccc2ccccc2c1` (stereo not given), the IC50 (H9c2) is reported as > 79 µM (inactive).

With `COc1cc(/C=C(\C#N)c2nc3c(s2)CC(C)CC3)ccc1O` (stereo not given) the AC50 (Cytochrome P450 2C19) was 39.8 µM (inconclusive), the AC50 (Cytochrome P450 2D6) was 28.2 µM (inconclusive) and the AC50 (Cytochrome P450 2C9) was “inconclusive”.

With `COc1cccc(NC(=O)c2oc3ccc(S(=O)(=O)N4CCOCC4)cc3c2C)c1` the IC50 (H9c2) was > 79 µM (inactive).

In the case of `CCn1c2ccccc2c2nc3cc(OC)c(OC)cc3nc21`, the IC50 (H9c2) is reported as > 79 µM (inactive).

For `Cc1ccn2c(NC3CCCC3)c(-c3ccncc3)nc2c1`, the AC50 [1] was 1.45 µM (active) and the IC50 [2] was 55.3 µM (active).

For `Cc1ccc(OCCOC(=O)CCc2nc(O)c3ccccc3n2)cc1`, the IC50 (H9c2) was 10.6 µM (active).

With `CN(C)c1ccc(C2N(c3ccc(F)cc3)C(=O)C3CCCN32)cc1` (stereo not given) the AC50 [1] was 49.4 µM (active).

In the case of `Oc1nc(N2CCN(c3ccccc3)CC2)nc2c1CCCC2`, the IC50 (H9c2) is reported as > 79 µM (inactive).

In the case of `Cc1ccc2c(c1)CCCN2CC(=O)N(C)c1c(N)n(Cc2ccccc2)c(=O)[nH]c1=O`, the AC50 [1] is reported as 20 µM (active).

With `O=C(CC(C(=O)c1ccccc1)c1ccccc1)c1ccccc1` (stereo not given) the IC50 (H9c2) was > 79 µM (inactive).

In the case of `O=C(N/N=C/c1ccc(Cl)cc1)c1[nH]nc2c1CCCC2`, the EC50 [11] is reported as 8.55 µM (inconclusive), the EC50 [12] is reported as > 120 µM (not active) and the EC50 (BJ [5]) is reported as 39.2 µM (active). The EC50 (BJ [8]) was 0.669 µM (active), the EC50 [9] was 0.657 µM (active) and the CC50 (Vero) was 2.59 µM (active).

For `COc1cc(/C=N/Nc2nc3ccccc3o2)cc(OC)c1O`, the IC50 (Large T antigen) was 8.87 µM (active) and the AC50 [1] was 0.025 µM (active).

In the case of `O=[N+]([O-])c1ccc(Cl)c(/C=N/N2CCN(Cc3ccccc3)CC2)c1`, the AC50 (Cytochrome P450 2D6) is reported as 11.2 µM (inconclusive) and the AC50 (Cytochrome P450 2C9) is reported as “inconclusive”.

For `C/C(=N\Nc1cccc(Cl)c1)c1ccncc1`, the EC50 [13] was 1.42 µM (active), the EC50 [14] was > 60 µM (not active) and the AC50 [1] was 0.536 µM (active).

For `CNc1nc(N)c(C(=O)C(C)(C)C)s1`, the AC50 [1] was 4.57 µM (active).
